These results are taken from US20250215004A1, “AZOLO COMPOUNDS FOR TREATMENT OF FIBROTIC DISEASES” (GEORG-AUGUST-UNIVERSITÄT GÖTTINGEN STIFTUNG ÖFFENTLICHEN …, priority 2022, published 2025).

Values after ≈ are worked out from the molar mass of the structure shown.

What all share (format): cell-based
Experiment [1] has as its system TK173 cells. The experiment can be described thus: Collagen I mRNA PCR assay (qPCR, normalized to GAPDH) in TGFβ1-treated TK173 fibroblasts. To be noted: Homo sapiens, Fibroblast, 10 ng/ml TGFβ1 for 5 days, then compound 48 hours. The protocol:
(§1) Compound reconstitution. Prior to treatment, each compound was used from a stock solution of a concentration of 10 mg/ml in DMSO. Final concentration of DMSO in cell cultures was kept below 0.1%.
(§2) Cell culture and treatment. The human renal fibroblast cell line TK173 was derived from a normal human kidney (laboratory stock; (G. A. Müller et al., Exp. Nephrol. 1995, 3, 127). Cell line stabilization for research purposes was approved by the Ethics Committee of the Georg-August-University. TK173 cells were cultured in Dulbecco's modified Eagle's medium (DMEM, Gibco, USA) supplemented with 10% fetal bovine serum (FBS, Gibco, Germany) and 1% penicillin-streptomycin (PS, Gibco, USA) at 37° C. in a humidified atmosphere with 5% CO2. Cell line was routinely tested for mycoplasma contamination. To investigate the effect of compounds after profibrotic agent treatment, 3×10^4 TK173 cells were seeded in one well of a 6-well culture plate in normal medium. After 24 hours, the culture medium was removed, and the cells were incubated for a further 24 hours in FBS free culture medium (starvation medium). Then, 10 ng/ml TGFβ1 (R&D Systems, USA) was added to the starvation medium, and the culture medium was changed with fresh TGFβ1 in every alternate day. After 5 days of TGFβ1 treatment, cell culture medium was replaced by starvation medium with compounds at different concentration for following 48 hours of incubation.
RNA isolation. Total RNA was extracted by the TRIzol reagent (Life technologies, USA) and purified by PureLink RNA Mini Kit (Ambion, USA) according to instructions available from the manufacturer with minor modifications. The samples were stored at −80° C. prior to use. RNA concentrations were measured by NanoDrop Spectrophotometer (ThermoFisher Scientific, USA), and were equilibrated to 100 ng for complementary DNA (cDNA) synthesis.
Quantitative real-time PCR analysis (qPCR). For SYBR Green-based qPCR analysis, cDNA preparation was performed by using DNAse I (Sigma-Aldrich, USA) digestion to remove residual genomic DNA and SuperScript II Reverse Transcriptase kit (Invitrogen, USA) to synthesize cDNA following the manufacturer's detailed instructions. All qPCR reactions were performed using the StepOne Plus Real-Time System (Applied Biosystems, USA) and amplifications were done using the SYBR Green PCR Master Mix (Applied Biosystems, USA). The thermal cycling conditions were initiated to 95° C. for 20 seconds, 40 amplification cycles at 95° C. for 3 seconds and 60° C. for 30 seconds, with one cycle of dissociation at 95° C. for 15 seconds, 60° C. for 60 seconds, and 95° C. for 15 seconds. Three replicates per sample were run in duplicate. The experimental cycle threshold (Ct) values were normalized to those obtained for GAPDH, and the relative gene expression level was determined using the 2_ddCT methods.

Experiment [2] relates to TK173 cells. Nature of the experiment: ELISA to detect secreted type I collagen (Pro-Collagen I alpha 1) in conditioned media of TGFβ1-treated TK173 fibroblasts. To be noted: Homo sapiens, Fibroblast, 10 ng/ml TGFβ1 for 5 days, then compound 48 hours, Pro-Collagen I alpha 1 ELISA of conditioned media, read-out: IC50, concentration where the TGFβ-stimulated collagen secretion is attenuated by 50%. The procedure:
as §1, §2
Conditioned media containing the secretome of TK173 fibroblast were harvested after 48 hours of compound treatments. Secretion of pro-Collagen 1 was assessed with Human Pro-Collagen I alpha 1 DuoSet ELISA (R&D Systems, USA). To prepare the ELISA plate, Human Pro-Collagen I α1 Capture Antibody was diluted in ELISA Plate-coating Buffer at 4 μg/ml working concentration. 100 μl of diluted Capture Antibody was added to the 96-well microplates and incubated overnight at room temperature. After three times washing with Wash Buffer, microplates were blocked by adding 300 μl of Reagent Diluent for 1 hour at room temperature. To proceed the ELISA, Human Pro-Collagen I α1 Standards were diluted in Reagent Diluent (range between 31.3 pg/ml-2000 pg/ml) and 100 μl of standards or conditioned mediums were add into designated wells. Microplates were incubated at room temperature for 2 hours. Human Pro-Collagen I α1 Detection Antibody was prepared in Reagent Diluent at 100 ng/ml working concentration and 100 μl of diluted Detection Antibody was applied for 2 hours at room temperature after extensive washing. Then, working solution of Streptavidin-HRP with Reagent Diluent was prepared by diluting 1:40 and added into each well. After 20 minutes at room temperature incubation, microplates were washed and applied with 100 μl of Substrate Solution for 20 minutes followed by Stop Solution after washing. Finally, signals were measured at 450 nm absorbance by PHOmo Microplate Reader (Autobio, China). The amount of pro-collagen 1 antibody fusion was quantified by extrapolating the signal into a linear range of a pro-collagen 1 standard curve. Screening compounds were typically tested in at concentrations between 5 and 200 μg/ml. The IC50 values observed by the dose response curves for each compound (n=4-6, two independent experiments) were obtained by nonlinear regression analysis using Prism 9 software (GraphPad, La Jolla, USA) and represent the concentration where the TGFβ-stimulated collagen secretion is attenuated by 50%.

The test system of experiment [3] is TK173 cells. The experiment can be described thus: Collagen I Western blot in TGFβ1-treated TK173 fibroblasts. The settings on record: Homo sapiens, Fibroblast, 10 ng/ml TGFβ1 for 5 days, then compound 48 hours, Collagen I immunoblot. The procedure: as §1, §2
Protein Extraction. Total proteins were extracted from the cultured cells by NP40 Cell Lysis Buffer (Invitrogen, USA) containing phosphatase (Sigma-Aldrich, USA) and protease inhibitor (Roche, Switzerland) followed by sonication and centrifugation at 12,000×g for 20 minutes at 4° C. to clear the lysates. The supernatant was collected and measured using Pierce BCA Protein Assay Kit (ThermoFisher Scientific) by PHOmo Microplate Reader (Autobio, China). The samples were stored at −80° C. prior to use.
Immunoblotting. Western blot analysis, 10 μg of extracted proteins were diluted in NuPAGE LDS Samples Buffer (Novex Life technologies, USA) containing 5% 2-Mercaptoethanol (Sigma-Aldrich, Germany), and following denatured for 5 minutes at 95° C. The proteins were resolved by 4-12% NuPAGE SDS-PAGE (Novex Life technologies, USA). Blots were often stripped with Thermo Scientific Restore PLUS Western Blot Stripping Buffer (Thermo Fisher Scientific, Germany) for reprobing. The following antibodies were used for immunoblotting: Collagen I (1:1000; ab233080, Abcam, USA), alpha smooth muscle Actin (1:1000; ab124964, Abcam, USA), GAPDH (1:8000; sc-32233, Santa Cruz, USA). Proteins were detected by LumiGLO chemiluminescent system (Cell Signaling Technology, USA) with appropriate secondary antibodies: anti-mouse HRP (1:2500; Dako, Denmark) and anti-rabbit HRP (1:2500; 7074, Cell Signaling Technology, USA) using ChemiDoc MP Imaging System (Bio-Rad, USA).

`c1ccc2c(c1)cnn1nnnc21` [Compound 1, Tetrazolo[5,1-a]phthalazine]: the IC50 in experiment [1] is less than 80 µg/mL; in experiment [2], 157 µg/mL (≈ 917 µM); in experiment [3], less than 40 µg/mL.
For the compound `Cc1nnc2c3ccccc3cnn12` [Compound 3, 3-Methyl-1,2,4-triazolo[3,4-a]phthalazine], the figures for the IC50 in experiment [1], in experiment [2] and in experiment [3] were less than 20 µg/mL, 96 µg/mL (≈ 521 µM) and less than 5 µg/mL, respectively.
Turning to `Cc1nn2c(C)nnc2c2ccccc12` [Compound 5, 3,6-Dimethyl-1,2,4-triazolo[3,4-a]phthalazine], the IC50 was less than 20 µg/mL in experiment [1] and 39 µg/mL (≈ 197 µM) in experiment [2].
Regarding `[2H]C([2H])([2H])c1nnc2c3ccccc3cnn12` [Compound 12, 3-D3-Methyl-1,2,4-triazolo[3,4-a]phthalazine], the IC50 in experiment [1] was less than 50 µg/mL; in experiment [3], less than 5 µg/mL.
On to `Clc1ccc2c(cnn3nnnc23)c1` [Compound 51b, 8-chlorotetrazolo[5,1-a]phthalazine], for which the IC50 in experiment [1] and in experiment [3] was less than 5 µg/mL throughout.
